Laboratory results as given in patent EP0326329B1, “Quinazoline derivatives useful as insecticides” (Dow AgroSciences LLC, priority 1988, dated 1989).

Tests used:
Type in all cases: in vivo
[1] = tested on: Erysiphe graminis tritici (powdery mildew); assay: Greenhouse Test 1, foliar spray fungicide screen (POWD MDEW), host wheat; conditions: disease control rating, 400 ppm (+++ at 100 ppm)
[2] = tested on: Pyricularia oryzae (rice blast); conditions: disease control rating, foliar spray, host rice; 400 ppm (+++ at 100 ppm)
[3] = tested on: Puccinia recondita tritici (leaf rust); assay: Greenhouse Test 1, foliar spray fungicide screen (LEAF RUST), host wheat; conditions: disease control rating, 400 ppm (+++ at 100 ppm)
[4] = tested on: Botrytis cinerea (gray mold); assay: Greenhouse Test 1, foliar spray fungicide screen (GRAY MOLD), host grape berries; conditions: disease control rating, 400 ppm (+++ at 100 ppm)
[5] = tested on: Pseudoperonospora cubensis (downy mildew); assay: Greenhouse Test 1, foliar spray fungicide screen (DOWN MDEW), host squash; conditions: disease control rating, 400 ppm (+++ at 100 ppm)
[6] = tested on: Southern corn rootworm (Diabrotica undecimpuctata howardi Barber); assay: Mite/insect screen, soil treatment (CRW); conditions: percent mortality; for mortality at 12 ppm / mortality at 24 ppm: Diabrotica, read-out: CRW RESULTS %; for mortality at 24 ppm: CRW rate 24.00 ppm
In short: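 Compounds dissolved in acetone/alcohol (50:50) with Toximul R/S emulsifiers, diluted with water. Soil (15 g, with presoaked corn seed) treated with 1 mL test solution, dried 6–12 h, then five 2–3 instar larvae added; held at 23°C. Percent mortality and phytotoxicity scored after standard exposure periods.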

[7] = tested on: southern armyworm (Spodopetra eridania Cramer); assay: Mite/insect screen, sprayed squash leaves (SAW); conditions: percent mortality; for mortality at 200 ppm / mortality at 400 ppm: Spodoptera eridania, read-out: SAW RESULTS %; for mortality at 400 ppm: spray rate 400 ppm
In short: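 Compounds were dissolved in 50:50 acetone/alcohol containing sulfonate/nonionic emulsifier blends (23 g and 13 g per liter) and diluted with water to test concentrations. Leaves were sprayed on both surfaces to runoff and dried for one hour. Percent mortality and phytotoxicity were scored after standard exposure periods.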

[8] = tested on: Twospotted spider mites (Tetranychus urticae Koch); assay: Mite/insect screen, sprayed squash cotyledons (SM); conditions: percent mortality; for mortality at 200 ppm / mortality at 400 ppm: Tetranychus urticae, read-out: SM RESULTS %; for mortality at 400 ppm: spray rate 400 ppm
In short: (§1)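 Percent mortality and phytotoxicity are the read-outs, assessed after standard exposure periods. Test solutions, made in 50:50 acetone/alcohol with two sulfonate/nonionic emulsifier blends and diluted in water, are sprayed to runoff on both leaf surfaces, which then dry for one hour.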

[9] = tested on: melon aphids (Aphis gossypii Glover); assay: Mite/insect screen, sprayed squash cotyledons (MA); conditions: percent mortality; for mortality at 200 ppm / mortality at 400 ppm: Aphis gossypii, read-out: MA RESULTS %; for mortality at 400 ppm: spray rate 400 ppm
In short: as §1

[10] = soil treatment, CRW rate 12.00 ppm

| Compound | POWD MDEW [1] | RICE BLAST [2] | LEAF RUST [3] | GRAY MOLD [4] | DOWN MDEW [5] | mortality at 12 ppm [6, 10] [%] | mortality at 24 ppm ([6]; soil treatment) [%] | mortality at 200 ppm ([7]; spray rate 200 ppm) [%] | mortality at 400 ppm [7] [%] | mortality at 200 ppm ([8]; spray rate 200 ppm) [%] | mortality at 400 ppm [8] [%] | mortality at 200 ppm ([9]; spray rate 200 ppm) [%] | mortality at 400 ppm [9] [%] | further results |
| --- | --- | --- | --- | --- | --- | --- | --- | --- | --- | --- | --- | --- | --- | --- |
| Clc1ccc2ncnc(NCCc3ccccc3Oc3ccccc3)c2c1 [Example 57, 6-chloro-N-[2-(2-phenoxyphenyl)ethyl]-4-quinazolinamine] | - (- = 0-19% control at 400 ppm) | - (- = 0-19% control at 400 ppm) | - (- = 0-19% control at 400 ppm) | - (- = 0-19% control at 400 ppm) | - (- = 0-19% control at 400 ppm) | 0 | 0 | 80 | 0 | 0 | 0 | 0 | 0 | CRW RESULTS % [6, 10]: 0%; SAW RESULTS % ([7]; spray rate 200 ppm): 100%; SM RESULTS % ([8]; spray rate 200 ppm): 0%; MA RESULTS % ([9]; spray rate 200 ppm): 0% |
| c1ccc(Oc2ccc(CCNc3ncnc4ccccc34)cc2)cc1 [Example 104, N-[2-(4-phenoxyphenyl)ethyl]-4-quinazolinamine] | +++ (+++ = 90-100% control at 100 ppm) | +++ (+++ = 90-100% control at 100 ppm) | +++ (+++ = 90-100% control at 100 ppm) | - (- = 0-19% control at 400 ppm) | +++ (+++ = 90-100% control at 100 ppm) | – | 100 | – | 100 | – | 0 | – | 0 | CRW RESULTS % ([6]; rate not given): 0%; SAW RESULTS % ([7]; rate not given): 0%; SM RESULTS % ([8]; rate not given): 100%; MA RESULTS % ([9]; rate not given): 100% |
| COc1ccccc1CCOc1ncnc2c(F)cccc12 [Example 131, 8-fluoro-4-[2-(2-methoxyphenyl)ethoxy]quinazoline] | +++ (+++ = 90-100% control at 100 ppm) | +++ (+++ = 90-100% control at 100 ppm) | +++ (+++ = 90-100% control at 100 ppm) | - (- = 0-19% control at 400 ppm) | +++ (+++ = 90-100% control at 100 ppm) | – | 0 | – | 0 | – | 0 | – | 0 | – |
| c1ccc(-c2cccc(CCOc3ncnc4ccccc34)c2)cc1 [Example 173, 4-[2-(1,1'-biphenyl)-3-ylethoxy]quinazoline] | ++ (++ = 90-100% control at 400 ppm) | +++ (+++ = 90-100% control at 100 ppm) | + (+ = 20-89% control at 400 ppm) | - (- = 0-19% control at 400 ppm) | + (+ = 20-89% control at 400 ppm) | 0 | 0 | 0 | 0 | 0 | 0 | 80 | 0 | – |
| CC(C)Cc1ccc(C(C)COc2ncnc3c(F)cccc23)cc1 (centres unmarked) [Example 113, 8-fluoro-4-[2-[4-(2-methylpropyl)phenyl]propoxy]quinazoline] | + (+ = 20-89% control at 400 ppm) | +++ (+++ = 90-100% control at 100 ppm) | +++ (+++ = 90-100% control at 100 ppm) | - (- = 0-19% control at 400 ppm) | +++ (+++ = 90-100% control at 100 ppm) | 0 | 0 | 0 | 40 | 100 | 0 | 100 | 0 | – |
| c1ccc(Oc2ccc(CCCOc3ncnc4ccccc34)cc2)cc1 [Example 151, 4-[3-(4-phenoxyphenyl)propoxy]quinazoline] | + (+ = 20-89% control at 400 ppm) | - (- = 0-19% control at 400 ppm) | - (- = 0-19% control at 400 ppm) | - (- = 0-19% control at 400 ppm) | - (- = 0-19% control at 400 ppm) | 0 | 0 | 0 | 0 | 0 | 0 | 80 | 0 | – |
| CCOc1ccc(CCCOc2ncnc3c(F)cccc23)cc1 [Example 125, 8-fluoro-4-[3-[4-ethoxyphenyl]propoxy]quinazoline] | + (+ = 20-89% control at 400 ppm) | + (+ = 20-89% control at 400 ppm) | + (+ = 20-89% control at 400 ppm) | - (- = 0-19% control at 400 ppm) | + (+ = 20-89% control at 400 ppm) | 0 | 0 | 0 | 0 | 0 | 0 | 0 | 0 | – |
| CC(COc1ncnc2ccccc12)c1cccc(Oc2ccccc2)c1 (centres unmarked) [Example 182, 4-[2-(3-phenoxyphenyl)propoxy]quinazoline] | ++ (++ = 90-100% control at 400 ppm) | - (- = 0-19% control at 400 ppm) | ++ (++ = 90-100% control at 400 ppm) | - (- = 0-19% control at 400 ppm) | - (- = 0-19% control at 400 ppm) | 0 | 0 | 0 | 0 | 0 | 80 | 80 | 100 | – |
| CC(C)(C)c1ccc(CCCOc2ncnc3ccccc23)cc1 [Example 138, 4-[3-[4-(1,1-dimethylethyl)phenyl]propoxy]quinazoline] | ++ (++ = 90-100% control at 400 ppm) | + (+ = 20-89% control at 400 ppm) | - (- = 0-19% control at 400 ppm) | - (- = 0-19% control at 400 ppm) | ++ (++ = 90-100% control at 400 ppm) | 0 | 0 | 0 | 0 | 0 | 80 | 30 | 60 | – |
| CC(COc1ncnc2ccccc12)c1ccccc1 (centres unmarked) [Example 60, 4-(2-phenylpropoxy)quinazoline] | + (+ = 20-89% control at 400 ppm) | +++ (+++ = 90-100% control at 100 ppm) | + (+ = 20-89% control at 400 ppm) | - (- = 0-19% control at 400 ppm) | ++ (++ = 90-100% control at 400 ppm) | – | 0 | – | 0 | – | 100 | – | 100 | – |
| CC(C)(C)c1ccc(CCCc2ncnc3ccccc23)cc1 [Example 127, 4-[3-[4-(1,1-dimethylethyl)phenyl]propyl]quinazoline] | +++ (+++ = 90-100% control at 100 ppm) | +++ (+++ = 90-100% control at 100 ppm) | ++ (++ = 90-100% control at 400 ppm) | - (- = 0-19% control at 400 ppm) | +++ (+++ = 90-100% control at 100 ppm) | 0 | 0 | 0 | 0 | 100 | 100 | 100 | 100 | – |
| OC(CNc1ncnc2ccccc12)c1ccc2ccccc2c1 (stereo not drawn) [Example 105, α-[(4-quinazolinylamino)methyl]-2-naphthalenemethanol] | - (- = 0-19% control at 400 ppm) | + (+ = 20-89% control at 400 ppm) | ++ (++ = 90-100% control at 400 ppm) | - (- = 0-19% control at 400 ppm) | - (- = 0-19% control at 400 ppm) | – | 0 | – | 0 | – | 0 | – | 0 | – |
| Brc1ccc2ncnc(NCCc3ccc(Oc4ccccc4)cc3)c2c1 [Example 177, 6-bromo-N-[2-(4-phenoxyphenyl)ethyl]-4-quinazolinamine] | - (- = 0-19% control at 400 ppm) | +++ (+++ = 90-100% control at 100 ppm) | +++ (+++ = 90-100% control at 100 ppm) | + (+ = 20-89% control at 400 ppm) | +++ (+++ = 90-100% control at 100 ppm) | 0 | 0 | 0 | 0 | 0 | 50 | 80 | 50 | – |
